Results: ChEMBL document CHEMBL3774320, “SAR exploration at the C-3 position of tetrahydro-β-carboline sstr3 antagonists” (Bioorg Med Chem Lett, 2016)

How the values were obtained:
Mus musculus [1] = experiment: Dose normalized AUC in mouse at 2 mg/kg, po; type: ADME, organism-based; details: in vivo
Mus musculus [2] = experiment: Decrease in glucose excursion in mouse at 10 mg/kg, po by Glucose tolerance test; type: functional; design: scale not given: the % may be the effect or the level left
[3] = target: T1, Somatostatin receptor type 3 (Homo sapiens, UniProt P32745)
T1 sequence (P32745 whole entry): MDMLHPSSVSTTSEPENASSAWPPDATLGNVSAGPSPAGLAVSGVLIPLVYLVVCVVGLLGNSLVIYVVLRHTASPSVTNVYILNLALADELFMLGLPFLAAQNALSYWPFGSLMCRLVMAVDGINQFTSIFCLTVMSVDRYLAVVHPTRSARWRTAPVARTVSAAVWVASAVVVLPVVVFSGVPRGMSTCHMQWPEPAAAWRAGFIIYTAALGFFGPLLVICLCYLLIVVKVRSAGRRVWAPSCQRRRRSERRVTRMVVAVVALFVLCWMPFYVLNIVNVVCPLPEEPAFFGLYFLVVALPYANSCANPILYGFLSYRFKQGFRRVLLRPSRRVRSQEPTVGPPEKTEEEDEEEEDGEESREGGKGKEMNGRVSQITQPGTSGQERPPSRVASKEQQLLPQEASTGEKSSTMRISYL
Description: Antagonist activity at human somatostatin receptor type 3 assessed as inhibition of cAMP levels

Mus musculus [4] = experiment: Decrease in glucose excursion in mouse at 0.1 mg/kg, po by Glucose tolerance test; type: functional; design: scale not given: the % may be the effect or the level left
[5] = target: T1, Somatostatin receptor type 3; remark: listed apart in the source
Description: Binding affinity to human somatostatin receptor type 3

[6] = target: Voltage-gated inwardly rectifying potassium channel KCNH2 (Homo sapiens, UniProt Q12809); experiment: Binding affinity to human ERG
Chain of Voltage-gated inwardly rectifying potassium channel KCNH2 (Q12809 whole entry): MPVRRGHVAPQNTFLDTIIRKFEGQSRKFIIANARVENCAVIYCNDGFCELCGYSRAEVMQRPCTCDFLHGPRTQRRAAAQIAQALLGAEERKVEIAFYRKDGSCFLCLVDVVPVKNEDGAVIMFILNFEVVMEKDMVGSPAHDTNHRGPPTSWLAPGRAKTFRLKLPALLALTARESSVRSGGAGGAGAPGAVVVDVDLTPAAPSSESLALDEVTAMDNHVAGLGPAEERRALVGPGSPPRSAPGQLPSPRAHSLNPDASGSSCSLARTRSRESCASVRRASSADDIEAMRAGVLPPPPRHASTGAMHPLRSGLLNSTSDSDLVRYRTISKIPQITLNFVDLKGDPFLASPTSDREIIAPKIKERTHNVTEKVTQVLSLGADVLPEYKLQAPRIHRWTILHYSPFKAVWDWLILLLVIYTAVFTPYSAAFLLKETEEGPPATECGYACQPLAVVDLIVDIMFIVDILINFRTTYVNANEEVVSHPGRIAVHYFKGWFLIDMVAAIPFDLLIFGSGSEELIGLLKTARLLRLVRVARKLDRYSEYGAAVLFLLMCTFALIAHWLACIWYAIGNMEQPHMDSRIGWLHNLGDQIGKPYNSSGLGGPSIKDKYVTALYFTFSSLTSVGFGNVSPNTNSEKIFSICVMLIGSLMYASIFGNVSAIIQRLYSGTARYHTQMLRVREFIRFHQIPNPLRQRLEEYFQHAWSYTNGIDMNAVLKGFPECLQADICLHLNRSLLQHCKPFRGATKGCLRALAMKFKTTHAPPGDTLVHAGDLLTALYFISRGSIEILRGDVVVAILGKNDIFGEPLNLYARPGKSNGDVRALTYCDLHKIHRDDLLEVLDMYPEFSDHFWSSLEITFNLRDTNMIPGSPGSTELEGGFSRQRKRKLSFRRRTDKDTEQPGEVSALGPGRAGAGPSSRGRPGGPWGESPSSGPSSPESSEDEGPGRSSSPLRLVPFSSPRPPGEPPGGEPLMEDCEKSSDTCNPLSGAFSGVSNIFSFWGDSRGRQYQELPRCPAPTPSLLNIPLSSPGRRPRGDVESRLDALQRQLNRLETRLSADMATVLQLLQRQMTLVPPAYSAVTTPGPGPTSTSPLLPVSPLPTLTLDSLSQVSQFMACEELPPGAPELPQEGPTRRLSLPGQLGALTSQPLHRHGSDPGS

Compound | EC50 [3] [nM] | IC50 [5] [nM] | other results
c1ccc(-c2c[nH]c([C@H]3Cc4c([nH]c5ccccc45)[C@@H](C4CCOCC4)N3)n2)cc1 | 22 | – | AUC/dose (Mus musculus [1]): 1.25 µM·h/mg/kg; Activity (Mus musculus [2]): 75%
Cc1nc([C@]2(c3cnn(C)c3)N[C@@H](c3nc(-c4ccc(F)cc4)c[nH]3)Cc3c2[nH]c2ccccc32)no1 | – | – | Activity (Mus musculus [4]): 94%
O=C(O)c1cccc(-c2c[nH]c([C@H]3Cc4c([nH]c5ccccc45)[C@@H](C4CCOCC4)N3)n2)c1 | – | > 1330 | –
Fc1ccccc1-c1c[nH]c([C@H]2Cc3c([nH]c4ccccc34)[C@@H](C3CCOCC3)N2)n1 | 30 | 18 | –
CS(=O)(=O)c1ccc(-c2c[nH]c([C@H]3Cc4c([nH]c5ccccc45)[C@@H](C4CCOCC4)N3)n2)cc1 | > 1000 | > 1330 | –
c1ccc2c3c([nH]c2c1)[C@@H](C1CCOCC1)N[C@@H](c1nc(-c2ccsc2)c[nH]1)C3 | 48 | 15 | –
COc1cccc(-c2c[nH]c([C@H]3Cc4c([nH]c5ccccc45)[C@](c4cnn(C)c4)(c4noc(C)n4)N3)n2)n1 | 4.8 | 2.1 | –
Cn1cc(-c2ccc(F)cc2)nc1[C@H]1Cc2c([nH]c3ccccc23)[C@H](C2CCOCC2)N1 | – | 1330 | –
Cc1ccc(-c2c[nH]c([C@H]3Cc4c([nH]c5ccccc45)[C@@H](C4CCOCC4)N3)n2)cc1 | 113 | 33 | –
Cc1nc([C@@]2(c3cnn(C)c3)N[C@@H](c3nc(-c4ccccn4)c[nH]3)Cc3c2[nH]c2ccccc32)no1 | 77 | 24 | –
Fc1cccc(-c2c[nH]c([C@H]3Cc4c([nH]c5ccccc45)[C@@H](C4CCOCC4)N3)n2)c1 | 88 | 8.2 | –
c1cncc(-c2c[nH]c([C@H]3Cc4c([nH]c5ccccc45)[C@@H](C4CCOCC4)N3)n2)c1 | – | 193 | –
N#Cc1ccc(-c2c[nH]c([C@H]3Cc4c([nH]c5ccccc45)[C@@H](C4CCOCC4)N3)n2)cc1 | – | 141 | –
Clc1ccc(-c2c[nH]c([C@H]3Cc4c([nH]c5ccccc45)[C@@H](C4CCOCC4)N3)n2)cc1 | 50 | 8.1 | –
c1ccc2c3c([nH]c2c1)[C@@H](C1CCOCC1)N[C@@H](c1nc(-c2ccncc2)c[nH]1)C3 | 432 | 163 | –
Clc1ccc(-c2c[nH]c([C@H]3Cc4c([nH]c5ccccc45)[C@@H](C4CCOCC4)N3)n2)nc1 | 199 | 74 | –
c1cnc(-c2c[nH]c([C@H]3Cc4c([nH]c5ccccc45)[C@@H](C4CCOCC4)N3)n2)nc1 | > 1000 | > 1330 | –
c1ccc2c3c([nH]c2c1)[C@@H](C1CCOCC1)N[C@@H](c1nc(-c2cscn2)c[nH]1)C3 | > 1000 | 786 | –
c1ccc2c3c([nH]c2c1)[C@@H](C1CCOCC1)N[C@@H](c1nc(-c2cnccn2)c[nH]1)C3 | 4500 | 782 | –
COc1cccc(-c2c[nH]c([C@H]3Cc4c([nH]c5ccccc45)[C@@H](C4CCOCC4)N3)n2)c1 | 17 | 4.6 | –
c1ccc(-c2nc([C@H]3Cc4c([nH]c5ccccc45)[C@@H](C4CCOCC4)N3)c[nH]2)cc1 | 405 | 487 | –
Cc1nc([C@]2(c3cnn(C)c3)N[C@@H](c3nc(-c4ccccc4)c[nH]3)Cc3c2[nH]c2ccccc32)no1 | 0.46 | 1.4 | –
Fc1ccc(-c2c[nH]c([C@H]3Cc4c([nH]c5ccccc45)[C@@H](C4CCOCC4)N3)n2)c(F)c1 | 37 | 23 | IC50 [6]: 634 nM
Cc1csc(-c2c[nH]c([C@H]3Cc4c([nH]c5ccccc45)[C@@H](C4CCOCC4)N3)n2)c1 | 138 | 34 | –
Cn1c2c(c3ccccc31)C[C@H](c1nc(-c3ccc(F)cc3)c[nH]1)N[C@@H]2C1CCOCC1 | 150 | 26 | –
COc1cccc(-c2c[nH]c([C@H]3Cc4c([nH]c5ccccc45)[C@@](c4cnn(C)c4)(c4noc(C)n4)N3)n2)n1 | 17 | 2.9 | –
N#Cc1cccc(-c2c[nH]c([C@H]3Cc4c([nH]c5ccccc45)[C@@H](C4CCOCC4)N3)n2)c1 | 435 | 37 | –

Compound | EC50 [3] [nM] | IC50 [5] [nM] | other results
COc1ccc(-c2c[nH]c([C@H]3Cc4c([nH]c5ccccc45)[C@@H](C4CCOCC4)N3)n2)cc1 | 181 | 127 | –
c1ccc2c3c([nH]c2c1)[C@@H](C1CCOCC1)N[C@@H](c1nc(-c2csc4ccccc24)c[nH]1)C3 | 11 | 10 | –
FC(F)(F)Oc1ccc(-c2c[nH]c([C@H]3Cc4c([nH]c5ccccc45)[C@@H](C4CCOCC4)N3)n2)cc1 | > 1000 | 639 | –
COc1cccc(-c2c[nH]c([C@H]3Cc4c([nH]c5ccccc45)[C@@H](C4CCOCC4)N3)n2)n1 | 3.1 | 8 | IC50 [6]: 1020 nM
Oc1ccc(-c2c[nH]c([C@H]3Cc4c([nH]c5ccccc45)[C@@H](C4CCOCC4)N3)n2)cc1 | 26 | 34 | –
c1ccc2c3c([nH]c2c1)[C@@H](C1CCOCC1)N[C@@H](c1nc(-c2nccs2)c[nH]1)C3 | > 1000 | > 1330 | –
c1ccc(-c2ccc(-c3c[nH]c([C@H]4Cc5c([nH]c6ccccc56)[C@@H](C5CCOCC5)N4)n3)cc2)cc1 | > 1000 | 391 | –
c1ccc(-c2c[nH]c([C@H]3Cc4c([nH]c5ccccc45)[C@@H](C4CCOCC4)N3)n2)nc1 | 196 | 109 | –
Clc1ccc(-c2c[nH]c([C@H]3Cc4c([nH]c5ccccc45)[C@@H](C4CCOCC4)N3)n2)s1 | 206 | 17 | –
FC(F)(F)Oc1cccc(-c2c[nH]c([C@H]3Cc4c([nH]c5ccccc45)[C@@H](C4CCOCC4)N3)n2)c1 | > 1000 | 43 | IC50 [6]: 58 nM
Fc1ccc(-c2c[nH]c([C@H]3Cc4c([nH]c5ccccc45)[C@@H](C4CCOCC4)N3)n2)cc1F | 6.4 | 1.8 | –
c1ccc2c3c([nH]c2c1)C(C1CCOCC1)NC(c1nc(C2CCCCC2)c[nH]1)C3 (configuration not stated) | 691 | 230 | –
Fc1ccc(-c2n[nH]c([C@H]3Cc4c([nH]c5ccccc45)[C@@H](C4CCOCC4)N3)n2)cc1 | 201 | 282 | –
Cc1nc([C@@]2(c3cnn(C)c3)N[C@@H](c3nc(-c4ccccc4)c[nH]3)Cc3c2[nH]c2ccccc32)no1 | 3.3 | 2.6 | –
c1ccc2c(-c3c[nH]c([C@H]4Cc5c([nH]c6ccccc56)[C@@H](C5CCOCC5)N4)n3)c[nH]c2c1 | – | 133 | –
Fc1ccc(-c2c[nH]c([C@H]3Cc4c([nH]c5ccccc45)[C@@H](C4CCOCC4)N3)n2)nc1 | 67 | 39 | –
Cc1nc([C@]2(c3cnn(C)c3)N[C@@H](c3nc(-c4ccccn4)c[nH]3)Cc3c2[nH]c2ccccc32)no1 | 5.5 | 9.4 | –
FC(F)(F)c1ccc(-c2c[nH]c([C@H]3Cc4c([nH]c5ccccc45)[C@@H](C4CCOCC4)N3)n2)cc1 | 1520 | 26 | –
CC(C)(C)c1c[nH]c(C2Cc3c([nH]c4ccccc34)C(C3CCOCC3)N2)n1 (configuration not stated) | 1010 | 150 | IC50 [6]: 2940 nM
Cc1[nH]c([C@H]2Cc3c([nH]c4ccccc34)[C@@H](C3CCOCC3)N2)nc1-c1ccccc1 | > 1000 | 573 | –
c1ccc2c3c([nH]c2c1)C(C1CCOCC1)NC(c1nc(C24CC5CC(CC(C5)C2)C4)c[nH]1)C3 (configuration not stated) | > 1000 | 25 | IC50 [6]: 506 nM
Fc1ccc(-c2cc([C@H]3Cc4c([nH]c5ccccc45)[C@@H](C4CCOCC4)N3)[nH]n2)cc1 | 938 | 280 | –
Cn1cc(-c2ccc(F)cc2)nc1[C@H]1Cc2c([nH]c3ccccc23)[C@@H](C2CCOCC2)N1 | > 1000 | 225 | –
CC1(c2nc(-c3ccccc3)c[nH]2)Cc2c([nH]c3ccccc23)C(C2CCOCC2)N1 (stereo in doubt; 6b) | – | 603 | IC50 [6]: 2950 nM
CC1(c2nc(-c3ccccc3)c[nH]2)Cc2c([nH]c3ccccc23)C(C2CCOCC2)N1 (stereo in doubt; 6c) | – | > 1330 | IC50 [6]: 1630 nM
CC1(c2nc(-c3ccccc3)c[nH]2)Cc2c([nH]c3ccccc23)C(C2CCOCC2)N1 (stereo in doubt; 6d) | > 1000 | 102 | IC50 [6]: 530 nM
